Molecular target: Protein disulfide-isomerase (Homo sapiens) (UniProt P07237)
Assay: PDI inhibitors, insulin turbidity readout, dose response, biochemical, absorbance, cherry-picked samples, set 2 (AID 624274)
Settings: PDI insulin reduction turbidity, absorbance 650 nm

Chain of Protein disulfide-isomerase (Homo sapiens) (P07237 whole entry, looked up): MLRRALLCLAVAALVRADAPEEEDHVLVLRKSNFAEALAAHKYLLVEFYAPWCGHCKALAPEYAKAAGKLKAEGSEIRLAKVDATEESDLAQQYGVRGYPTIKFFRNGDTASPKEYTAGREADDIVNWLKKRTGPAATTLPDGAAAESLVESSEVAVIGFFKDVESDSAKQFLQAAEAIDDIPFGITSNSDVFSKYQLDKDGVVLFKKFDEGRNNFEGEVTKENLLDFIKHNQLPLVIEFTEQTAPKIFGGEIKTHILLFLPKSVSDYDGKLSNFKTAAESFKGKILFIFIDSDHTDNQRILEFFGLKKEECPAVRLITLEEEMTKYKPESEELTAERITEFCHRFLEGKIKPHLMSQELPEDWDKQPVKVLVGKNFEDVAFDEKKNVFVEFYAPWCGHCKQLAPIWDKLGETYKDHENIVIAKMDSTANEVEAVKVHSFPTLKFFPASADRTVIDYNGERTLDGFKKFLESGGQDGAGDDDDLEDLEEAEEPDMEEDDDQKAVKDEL

Structure (SMILES)	AC50 [µM]
CN(C)C(=O)CSc1nnc([C@H](Cc2c[nH]c3ccccc23)NC(=O)OC(C)(C)C)o1	19.5
O=C(c1c(O)cc(O)cc1O)C1c2c(cc(O)c3c2O[C@H](c2ccc(O)cc2)[C@@H](O)C3)OC1c1ccc(O)cc1 (some centres undefined)	19.5
COc1ccc(/C=C2\CN(Cc3ccccc3)C/C(=C\c3ccc(OC)c(O)c3)C2=O)cc1O	2.98
CCOC(=O)c1c(CN2CCN(CCO)CC2)n(-c2ccccc2)c2cc(Br)c(O)cc12	0.61

From PubChem BioAssay AID624274 (Broad Institute, 2012)
